As usually defined, the IC50 is the concentration at which inhibition is half-maximal.

Our source for the IC50 values is US20200216439A1, “HETERO-1,5,6,7-TETRAHYDRO-4H-INDOL-4-ONES” (BAYER PHARMA AKTIENGESELLSCHAFT, priority 2015, published 2020).

T1 sequence (O43683 704-1085): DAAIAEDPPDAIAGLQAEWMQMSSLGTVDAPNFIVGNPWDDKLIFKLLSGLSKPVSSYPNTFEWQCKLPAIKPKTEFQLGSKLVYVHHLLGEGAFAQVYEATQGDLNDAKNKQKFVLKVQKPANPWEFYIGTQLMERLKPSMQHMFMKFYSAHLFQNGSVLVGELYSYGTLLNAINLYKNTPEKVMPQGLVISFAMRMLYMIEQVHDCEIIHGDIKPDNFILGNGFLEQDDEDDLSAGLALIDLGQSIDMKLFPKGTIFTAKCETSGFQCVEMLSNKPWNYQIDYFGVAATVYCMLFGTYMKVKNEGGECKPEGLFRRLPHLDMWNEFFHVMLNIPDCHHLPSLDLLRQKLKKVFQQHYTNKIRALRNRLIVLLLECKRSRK

The experiment has as its target T1, catalytic domain of human Bub1 (amino acids 704-1085) (Homo sapiens, UniProt O43683).
T1 construct: catalytic domain of human Bub1 (amino acids 704-1085); His6 (N); made in house; host or cells: Hi5 insect cells
As to the kind of experiment: Bub1 kinase assay (TR-FRET). It is filed as biochemical. The settings on record: TR-FRET; ATP 10 μM, peptide substrate 1 μM; 60 min at 22° C.; average or median if tested more than once; read-out: Inhibition of Bub1 kinase IC50. Put shortly:
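Eleven concentrations (0.1 nM–20 μM, duplicate) fitted by 4-parameter logistic for IC50. Read-out: EDTA-stopped TR-FRET (665/620 nm) detecting anti-phosphoserine binding to biotin-peptide (1 μM). Reaction used 10 μM ATP, 60 min at 22 °C, after 15 min compound preincubation with His-tagged human Bub1 704-1085.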
Background: TR-FRET usually uses a lanthanide donor and a delayed reading to cut background.
As for `O=C1COCc2[nH]c(-c3ccncc3C(F)(F)F)c(Nc3ccccc3)c21` [Example 300, 3-(Phenylamino)-2-[3-(trifluoromethyl)pyridin-4-yl]-1,7-dihydropyrano[3,4-b]pyrrol-4(5H)-one], the IC50 was determined as 8210 nM.
The value for `CC(=O)Nc1cc(-c2[nH]c3c(c2Nc2ccccc2)C(=O)CN(C(=O)c2ncco2)C3)ccn1` [Example 199, N-4-[6-(1,3-Oxazol-2-ylcarbonyl)-4-oxo-3-(phenylamino)-4,5,6,7-tetrahydro-1H-pyrrolo[2,3-c]pyridin-2-yl]pyridin-2-ylacetamide] was 20 nM; that for `O=C(Nc1cc(-c2[nH]c3c(c2Nc2ccccc2)C(=O)COC3)ccn1)NC1CC1` [Example 55, 1-Cyclopropyl-3-{4-[4-oxo-3-(phenylamino)-1,4,5,7-tetrahydropyrano[3,4-b]pyrrol-2-yl]pyridin-2-yl}urea] was 98 nM; that for `CC(C)(C)OC(=O)N1CC(=O)c2c([nH]c(-c3ccncc3F)c2Nc2ccccc2)C1` [Example 11, tert-Butyl 2-(3-fluoropyridin-4-yl)-4-oxo-3-(phenylamino)-1,4,5,7-tetrahydro-6H-pyrrolo[2,3-c]pyridine-6-carboxylate] was 8 nM.
The value for `COc1ccc(C(=O)Nc2cc(-c3[nH]c4c(c3Nc3ccccc3)C(=O)CN(C(C)=O)C4)ccn2)cc1F` [Example 285, N-4-[6-Acetyl-4-oxo-3-(phenylamino)-4,5,6,7-tetrahydro-1H-pyrrolo[2,3-c]pyridin-2-yl]pyridin-2-yl-3-fluoro-4-methoxybenzamide] was 6 nM; that for `CC(=O)Nc1cc(-c2[nH]c3c(c2Nc2ccc(C)cc2)C(=O)CN(C(C)=O)C3)ccn1` [Example 319, N-(4-(6-Acetyl-3-[(4-methylphenyl)amino]-4-oxo-4,5,6,7-tetrahydro-1H-pyrrolo[2,3-c]pyridin-2-yl)pyridin-2-yl)acetamide] was 192 nM.
As to `CC(=O)Nc1cc(-c2[nH]c3c(c2Nc2ccccn2)C(=O)CN(C(=O)OC(C)(C)C)C3)ccn1` [Example 310, tert-Butyl 2-(2-acetamidopyridin-4-yl)-4-oxo-3-(pyridin-2-ylamino)-1,4,5,7-tetrahydro-6H-pyrrolo[2,3-c]pyridine-6-carboxylate], the 50% inhibitory concentration (IC50) was determined as 79 nM.
Then `CC(=O)Nc1cc(-c2[nH]c3c(c2Nc2ccccc2)C(=O)CN(C(=O)C(C)(C)C)C3)ccn1` [Example 181, N-{4-[3-Anilino-6-(2,2-dimethylpropanoyl)-4-oxo-4,5,6,7-tetrahydro-1H-pyrrolo[2,3-c]pyridin-2-yl]pyridin-2-yl}acetamide], with 5 nM; and `CC(C)(C)OC(=O)N1CC(=O)c2c([nH]c(-c3ccncc3C(F)(F)F)c2Nc2ccccc2)C1` [Example 298, tert-Butyl 4-oxo-3-(phenylamino)-2-[3-(trifluoromethyl)pyridin-4-yl]-1,4,5,7-tetrahydro-6H-pyrrolo[2,3-c]pyridine-6-carboxylate], with 896 nM; and `CCOC(=O)N1CC(=O)c2c([nH]c(-c3ccncc3)c2Nc2ccccc2)C1` [Example 76, Ethyl 4-oxo-3-(phenylamino)-2-(pyridin-4-yl)-1,4,5,7-tetrahydro-6H-pyrrolo[2,3-c]pyridine-6-carboxylate], with 7 nM.
Turning to `CC(=O)Nc1cc(-c2[nH]c3c(c2Nc2ccc(F)cc2)C(=O)CN(S(C)(=O)=O)C3)ccn1` [Example 311, N-(4-(3-[(4-Fluorophenyl)amino]-6-(methylsulfonyl)-4-oxo-4,5,6,7-tetrahydro-1H-pyrrolo[2,3-c]pyridin-2-yl)pyridin-2-yl)acetamide], the half-maximal inhibitory concentration (IC50) stood at 4 nM.
Then `O=C1CNCc2[nH]c(-c3ccncc3OCC(F)F)c(Nc3ccccc3)c21` [Example 224, 3-anilino-2-[3-(2,2-difluoroethoxy)pyridin-4-yl]-1,5,6,7-tetrahydro-4H-pyrrolo[2,3-c]pyridin-4-one], with 222 nM.
The value for `CC(=O)N1CC(=O)c2c([nH]c(-c3ccnc(NC(=O)c4ccc(F)cc4)c3)c2Nc2ccccc2)C1` [Example 271, N-4-[6-Acetyl-4-oxo-3-(phenylamino)-4,5,6,7-tetrahydro-1H-pyrrolo[2,3-c]pyridin-2-yl]pyridin-2-yl-4-fluorobenzamide] was 5 nM.
The value for `O=C(Nc1cc(-c2[nH]c3c(c2Nc2ccccc2)C(=O)COC3)ccn1)c1cnco1` [Example 50, N-{4-[4-Oxo-3-(phenylamino)-1,4,5,7-tetrahydropyrano[3,4-b]pyrrol-2-yl]pyridin-2-yl}-1,3-oxazole-5-carboxamide] was 26 nM; that for `O=C1CN(C(=O)N2CCOCC2)Cc2[nH]c(-c3ccncc3OCC(F)F)c(Nc3ccccc3)c21` [Example 239, 2-[3-(2,2-Difluoroethoxy)pyridin-4-yl]-6-(morpholin-4-ylcarbonyl)-3-(phenylamino)-1,5,6,7-tetrahydro-4H-pyrrolo[2,3-c]pyridin-4-one] was 20 nM; that for `COc1ccc(C(=O)Nc2cc(-c3[nH]c4c(c3Nc3ccccc3)C(=O)CN(S(=O)(=O)N(C)C)C4)ccn2)cc1F` [Example 289, N-4-[6-(Dimethylsulfamoyl)-4-oxo-3-(phenylamino)-4,5,6,7-tetrahydr-1H-pyrrolo[2,3-c]pyridin-2-yl]pyridin-2-yl-3-fluoro-4-methoxybenzamide] was 6 nM.
For the compound `CC(C)(F)C(=O)Nc1cc(-c2[nH]c3c(c2Nc2ccccc2)C(=O)CN(S(=O)(=O)c2cnc[nH]2)C3)ccn1` [Example 162, N-{4-[3-Anilino-6(1H-imidazol-5-ylsulfonyl)-4-oxo-4,5,6,7-tetrahydro-1H-pyrrolo[2,3-c]pyridin-2-yl]pyridin-2-yl}-2-fluoro-2-methylpropanamide], the IC50 turned out to be 38 nM.
The value for `CN(C)CCOc1cnccc1-c1[nH]c2c(c1Nc1ccccc1)C(=O)CN(C(=O)OC(C)(C)C)C2` [Example 276, tert-Butyl 2-3-[2-(dimethylamino)ethoxy]pyridin-4-yl-4-oxo-3-(phenylamino)-1,4,5,7-tetrahydro-6H-pyrrolo[2,3-c]pyridine-6-carboxylate] was 7 nM; that for `O=C1CN(S(=O)(=O)c2cnc[nH]2)Cc2[nH]c(-c3ccnc(NC(=O)C4(F)CC4)c3)c(Nc3ccccc3)c21` [Example 165, N-{4-[3-Anilino-6-(1H-imidazol-5-ylsulfonyl)-4-oxo-4,5,6,7-tetrahydro-1H-pyrrolo[2,3-c]pyridin-2-yl]pyridin-2-yl}-1-fluorocyclopropanecarboxamide] was 14 nM.
The value for `COc1cnccc1-c1[nH]c2c(c1Nc1ccccc1)C(=O)CSC2` [Example 39, 2-(3-Methoxypyridin-4-yl)-3-(phenylamino)-1,7-dihydrothiopyrano[3,4-b]pyrrol-4(5H)-one] was 81 nM; that for `CC(C)(O)CC(=O)N1CC(=O)c2c([nH]c(-c3ccncc3)c2Nc2ccccc2)C1` [Example 57, 6-(3-Hydroxy-3-methylbutanoyl)-3-(phenylamino)-2-(pyridin-4-yl)-1,5,6,7-tetrahydro-4H-pyrrolo[2,3-c]pyridin-4-one] was 8 nM; that for `COC(=O)Nc1cc(-c2[nH]c3c(c2Nc2ccccc2)C(=O)COC3)ccn1` [Example 53, Methyl {4-[4-oxo-3-(phenylamino)-1,4,5,7-tetrahydropyrano[3,4-b]pyrrol-2-yl]pyridin-2-yl}carbamate] was 82 nM.
